Test results from patent US9139795B2, “Biodegradable lubricant composition” (IDEMITSU KOSAN CO., LTD., priority 2009, dated 2015).

What was measured:
[1] = Saponification value (JIS K 2503); assay type: physicochemical; conditions: base oil ester
Acid value (JIS K 2501) = assay type: physicochemical; conditions: base oil ester
[2] = Kinematic viscosity (JIS K 2283); assay type: physicochemical; conditions: base oil ester
[3] = Biodegradability, modified MITI test method (OECD301C); conditions: base oil ester alone
Procedure: A biodegradation rate was measured according to the modified MITI test method (OECD301C).

Row | Substance | Saponification Value [1] | Acid Value (Acid value (JIS K 2501)) | Viscosity @ 40° C. [2] | Biodegradability [3]
1 | di(pentaerythritol)oleate [Ester E] | 172 mgKOH/g | 3.30 mgKOH/g | 556.8 mm^2/s | –
2 | trimethylolpropane diisostearate [Ester G] | 176 mgKOH/g | 0.06 mgKOH/g | 105.0 mm^2/s | 65.0%
